The values that follow come from patent US20260125359A1, “HETEROARYL COMPOUNDS AS MULTI-TARGET PROTEIN KINASE INHIBITORS” (FUJIAN HAIXI PHARMACEUTICALS CO., LTD., priority 2023, published 2026).

One may read the inhibition as the drop in the measured response relative to a control, in per cent.

Test [1] has as its target KIT (Homo sapiens, UniProt P10721). The experiment in a line: KIT in vitro kinase activity assay (HTRF kinEASE TK). Format: biochemical. Particulars: for inhibition at 0.01 µM: compound 10 nM, read-out: KIT inhibition rate, 10 nM; for inhibition at 0.1 µM: compound 100 nM, read-out: KIT inhibition rate, 100 nM. An excerpt:
(§1) CSF-1R, PDGFR-α, KDR (VEGFR2) and KIT in vitro Kinase Activity Assay:
(§2) • ENVISION (Perkinelmer, 2104) • White 384-well MicroPlate (Cat #264706, Nunc) • HTRF kinEASE TK kit main reagents (Cat #62TKOPEC, Cisbio) • TK-biotin substrate • Streptavidin-XL665 • TK Antibody-Cryptate • 5× Enzymatic buffer (5×KB) • Staphylococcal enterotoxin B (SEB) • HTRF Detection buffer • CSF-1R (Cat #PV3249, Invitrogen) • PDGFR-α (Cat #PV3811, Invitrogen) • KDR (Cat #PV3660, Invitrogen) • KIT (Cat #08-156, Carna) • ATP 10 mM (Cat #PV3227, Invitrogen) • DTT 1 M (Cat #D5545, Sigma) • MgCl2 1 M (Cat #M8266, Sigma) • MnCl2 1 M (Cat #244589, Sigma)
(§3) Dilute Substrate-TK and ATP to 5× of the reaction concentration using 1× Kinase Buffer.
(§4) Prepare the 5× enzyme working solution using 1× Kinase Buffer.
(§5) Prepare the 4×Sa-XL665 working solution using Detection Buffer.
(§6) Dilute TK-Ab-Cryptate 100 times using Detection Buffer to prepare the working solution.
(§7) After all reagents were prepared according to the methods described above, except for the enzyme, they were equilibrated to room temperature before starting the sample addition. • a) First, 2.5% DMSO solutions were prepared separately using the pre-prepared 1× kinase buffer (DMSO concentrations that were too high could affect the reaction, so the final concentration of DMSO was controlled at 1%). Then, the corresponding 2.5% DMSO solution for the enzyme was used to dilute the test compounds. Compounds were screened with two concentrations of 100 nM and 10 nM. Except for the control wells, 4 μL of the diluted test compound solution was added to the reaction wells, and 4 μL of the pre-prepared 2.5% DMSO solution was added to the control wells. • b) 2 μL of the pre-prepared TK-biotin substrate solution at the corresponding concentration for the kinase was added to all reaction wells. • c) 2 μL of the pre-prepared enzyme solution at the corresponding concentration was added to all reaction wells except the negative control wells. For the negative control wells, 2 μL of 1× kinase buffer corresponding to the enzyme was added to make up the volume. The plate was sealed with sealing film, mixed gently, and incubated at room temperature for 10 min to allow the compounds to fully interact with the enzyme. • d) 2 μL of the ATP solution at the corresponding concentration for the enzyme was added to all reaction wells to initiate the kinase reaction. ATP concentrations and reaction times for enzyme screening are shown in Table 26 • e) Five minutes before the end of the kinase reaction, the detection solution was prepared. The detection buffer from the kit was used to prepare detection solutions for Streptavidin-XL665 and TK antibody europium cryptate (1:100) at the appropriate concentrations for the two enzymes. • f) After the kinase reaction was completed, 5 μL of the diluted Streptavidin-XL665 solution was added to all reaction wells. After mixing, the diluted TK antibody europium cryptate detection solution was immediately added. • g) The plate was sealed and mixed, incubated at room temperature for 1 hour, and the fluorescence signal was detected using the ENVISION (PerkinElmer) instrument (excitation at 320 nm, emission at 665 nm and 615 nm). The inhibition rate for each well was calculated based on the full-activity control wells and background signal wells, and the average value of the replicates was taken.
(In general: Time-resolved FRET reads energy transfer from a long-lived donor to a nearby acceptor.)

Test [2] concerns the target DDR1 (Homo sapiens, UniProt Q08345). Briefly: DDR1 in vitro kinase activity assay (LanthaScreen Eu-anti-GST antibody / Kinase Tracer 178). Type of test: binding. The conditions noted are these: for inhibition at 0.01 µM: compound 10 nM, read-out: DDR1 inhibition rate, 10 nM; for inhibition at 0.1 µM: compound 100 nM, read-out: DDR1 inhibition rate, 100 nM. The procedure: DDR1 in vitro Kinase Activity Assay:
• ENVISION (Perkinelmer, 2104) • White 384-well MicroPlate (Cat #264706, Nunc) • DDR1 (Cat #PV6047, Invitrogen) • 5× Kinase Buffer A (Cat #PV3189, Invitrogen) • Kinase Tracer 178 (Cat #PV5593, Invitrogen) • LanthaScreen® Eu-anti-GST Antibody (Cat #PV5594, Invitrogen)
The compounds to be tested were tested at two concentrations of 100 nM and 10 nM.
Kinase/Antibody Mixtures Preparation: Dilute Kinase/Antibody Mixtures with 1× Kinase Buffer to form 3× working solutions with final concentrations of 5 nM kinase and 2 nM Eu-Anti-GST Antibody, respectively.
Kinase Tracer 178 Preparation: Dilute Kinase Tracer 178 with 1× Kinase Buffer to make a 3× working solution with a final concentration of 10 nM.
After all reagents were prepared according to the methods described above, except for the enzyme, they were equilibrated to room temperature before starting the sample addition. • a) First, 3% DMSO solutions were prepared separately using the pre-prepared 1× kinase buffer (DMSO concentrations that were too high could affect the reaction, so the final concentration of DMSO was controlled at 1%). Then, the corresponding 3% DMSO solution for the enzyme was used to dilute the test compounds. Compounds were screened with two concentrations of 100 nM and 10 nM. Except for the control wells, 5 μL of the diluted test compound solution was added to the reaction wells, and 5 μL of the pre-prepared 3% DMSO solution was added to the control wells. • b) 5 μL of the pre-prepared Kinase/Antibody mixtures was added to all reaction wells except the negative control wells. For the negative control wells, 5 μL of 1× kinase buffer corresponding to the enzyme was added to make up the volume. • c) 5 μL of the pre-prepared Kinase Tracer 178 solution was added to all reaction wells. • d) The plate was sealed and mixed, incubated at room temperature for 1 hour, and the fluorescence signal was detected using the ENVISION (PerkinElmer) instrument (excitation at 340 nm, emission at 665 nm and 615 nm). The inhibition rate for each well was calculated based on the full-activity control wells and background signal wells, and the average value of the replicates was taken.

The target of test [3] is CSF-1R (Homo sapiens, UniProt P07333). Briefly: CSF-1R in vitro kinase activity assay (HTRF kinEASE TK). Particulars: for inhibition at 0.01 µM: compound 10 nM, read-out: CSF-1R inhibition rate, 10 nM; for inhibition at 0.1 µM: compound 100 nM, read-out: CSF-1R inhibition rate, 100 nM. Type of test: biochemical.
CSF-1R, sequence (P07333 20-972): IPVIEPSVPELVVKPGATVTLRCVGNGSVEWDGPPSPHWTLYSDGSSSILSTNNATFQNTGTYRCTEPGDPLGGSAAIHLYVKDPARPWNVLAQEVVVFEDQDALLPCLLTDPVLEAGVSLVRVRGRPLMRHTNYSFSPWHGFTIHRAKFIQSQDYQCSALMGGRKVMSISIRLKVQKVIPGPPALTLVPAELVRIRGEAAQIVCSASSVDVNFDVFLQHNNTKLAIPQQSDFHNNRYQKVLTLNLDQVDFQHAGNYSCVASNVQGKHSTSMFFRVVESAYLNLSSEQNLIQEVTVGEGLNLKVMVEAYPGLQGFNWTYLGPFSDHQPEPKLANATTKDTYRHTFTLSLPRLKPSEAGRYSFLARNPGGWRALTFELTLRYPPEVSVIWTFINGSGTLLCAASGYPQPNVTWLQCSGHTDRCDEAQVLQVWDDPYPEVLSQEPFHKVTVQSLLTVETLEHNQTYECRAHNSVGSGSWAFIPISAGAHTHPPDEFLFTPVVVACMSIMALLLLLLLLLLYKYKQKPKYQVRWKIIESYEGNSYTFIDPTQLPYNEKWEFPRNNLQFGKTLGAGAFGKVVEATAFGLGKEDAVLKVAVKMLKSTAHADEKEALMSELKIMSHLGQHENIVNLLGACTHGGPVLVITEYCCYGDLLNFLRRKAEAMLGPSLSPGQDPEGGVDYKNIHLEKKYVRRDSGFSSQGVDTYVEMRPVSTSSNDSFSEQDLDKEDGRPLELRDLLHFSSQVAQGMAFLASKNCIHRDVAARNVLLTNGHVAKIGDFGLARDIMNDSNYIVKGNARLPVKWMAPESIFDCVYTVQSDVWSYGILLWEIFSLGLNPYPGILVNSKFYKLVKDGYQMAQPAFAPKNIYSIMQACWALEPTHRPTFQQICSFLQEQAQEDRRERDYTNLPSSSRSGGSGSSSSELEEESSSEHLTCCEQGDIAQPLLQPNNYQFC
Source text: as §1, §2, §3, §4, §5, §6, §7

KIT, sequence (P10721 26-976): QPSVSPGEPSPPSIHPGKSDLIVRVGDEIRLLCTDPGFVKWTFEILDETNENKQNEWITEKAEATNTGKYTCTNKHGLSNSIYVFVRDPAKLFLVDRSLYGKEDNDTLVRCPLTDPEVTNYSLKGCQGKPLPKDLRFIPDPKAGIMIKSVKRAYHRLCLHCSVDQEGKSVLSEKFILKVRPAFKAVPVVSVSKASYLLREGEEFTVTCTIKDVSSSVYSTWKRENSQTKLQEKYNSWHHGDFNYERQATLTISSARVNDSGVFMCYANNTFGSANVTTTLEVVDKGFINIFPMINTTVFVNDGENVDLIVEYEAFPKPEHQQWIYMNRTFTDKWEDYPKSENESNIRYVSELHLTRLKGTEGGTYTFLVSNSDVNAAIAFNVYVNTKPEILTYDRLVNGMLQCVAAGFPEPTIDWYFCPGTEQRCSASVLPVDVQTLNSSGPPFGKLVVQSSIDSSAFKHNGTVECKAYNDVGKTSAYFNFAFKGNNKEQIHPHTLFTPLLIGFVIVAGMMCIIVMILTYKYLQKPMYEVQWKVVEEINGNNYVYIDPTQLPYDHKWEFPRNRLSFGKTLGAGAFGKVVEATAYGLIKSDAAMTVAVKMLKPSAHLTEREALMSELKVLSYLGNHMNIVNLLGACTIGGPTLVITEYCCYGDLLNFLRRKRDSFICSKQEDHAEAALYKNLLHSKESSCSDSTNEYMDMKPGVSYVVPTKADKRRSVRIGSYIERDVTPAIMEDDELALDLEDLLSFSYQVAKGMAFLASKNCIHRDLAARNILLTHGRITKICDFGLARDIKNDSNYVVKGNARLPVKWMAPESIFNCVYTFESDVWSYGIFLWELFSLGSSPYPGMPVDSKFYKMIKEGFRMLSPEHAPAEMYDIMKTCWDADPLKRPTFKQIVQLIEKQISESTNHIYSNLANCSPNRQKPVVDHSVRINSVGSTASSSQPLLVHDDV
DDR1, sequence (Q08345 19-913): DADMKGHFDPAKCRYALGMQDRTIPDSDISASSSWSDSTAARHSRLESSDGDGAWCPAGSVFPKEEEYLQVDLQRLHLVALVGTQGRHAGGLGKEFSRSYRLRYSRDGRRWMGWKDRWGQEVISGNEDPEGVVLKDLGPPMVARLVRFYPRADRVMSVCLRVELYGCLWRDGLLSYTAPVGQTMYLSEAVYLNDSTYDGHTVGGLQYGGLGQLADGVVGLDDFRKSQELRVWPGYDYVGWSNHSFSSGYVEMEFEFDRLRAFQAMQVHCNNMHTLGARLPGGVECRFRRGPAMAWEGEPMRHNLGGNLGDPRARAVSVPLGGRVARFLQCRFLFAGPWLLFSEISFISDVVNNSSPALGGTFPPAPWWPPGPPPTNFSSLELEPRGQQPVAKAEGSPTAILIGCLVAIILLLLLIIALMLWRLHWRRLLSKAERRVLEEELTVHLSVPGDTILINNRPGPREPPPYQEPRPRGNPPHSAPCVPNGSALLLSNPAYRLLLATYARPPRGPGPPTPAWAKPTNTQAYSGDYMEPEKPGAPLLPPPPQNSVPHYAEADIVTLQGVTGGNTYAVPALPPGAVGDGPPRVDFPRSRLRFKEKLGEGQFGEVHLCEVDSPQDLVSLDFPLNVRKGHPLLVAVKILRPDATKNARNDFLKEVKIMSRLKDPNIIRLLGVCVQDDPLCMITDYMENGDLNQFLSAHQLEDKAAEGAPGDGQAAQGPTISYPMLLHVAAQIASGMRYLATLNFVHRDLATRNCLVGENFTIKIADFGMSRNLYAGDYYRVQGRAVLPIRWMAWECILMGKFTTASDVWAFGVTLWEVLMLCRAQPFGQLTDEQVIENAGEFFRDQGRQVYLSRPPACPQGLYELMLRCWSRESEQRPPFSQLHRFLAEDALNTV

`Cn1cc2ncc(N[C@H]3CCc4c(C(=O)Nc5nc(C6CC6)cs5)cccc43)cc2n1` [Compound 74h, (S)—N-(4-cyclopropylthiazol-2-yl)-1-((2-methyl-2H-pyrazolo[4,3-b]pyridin-6-yl)amino)-2,3-dihydro-1H-indene-4-carboxamide]: the inhibition at 0.01 µM is 35.3% in test [1], 57.2% in test [2] and 72.6% in test [3]. For the same molecule, the inhibition at 0.1 µM turned out to be 94.9% in test [1], 99.9% in test [2] and 96.3% in test [3].

Consider `Cn1ncc2ncc(O[C@H]3CCc4c(C(=O)Nc5cncc(Cl)c5)cccc43)cc21` [Compound 76ac, (S)—N-(5-chloropyridin-3-yl)-1-((1-methyl-1H-pyrazolo[4,3-b]pyridin-6-yl)oxy)-2,3-dihydro-1H-indene-4-carboxamide], for which the inhibition at 0.01 µM in test [1] came to 12.6%; in test [2], 72.5%; in test [3], 71.9%. Moreover, the results for the inhibition at 0.1 µM in test [1], in test [2] and in test [3] were 54%, 103% and 97.3%, respectively.

Take `Cn1cc2ncc(O[C@H]3CCc4c(C(=O)Nc5cncc(Cl)c5)cccc43)cc2n1` [Compound 76ai]: the inhibition at 0.01 µM in test [1] came out at 39.6%; in test [2] it was 94.2%; in test [3], 78.2%. For the same molecule, the results for the inhibition at 0.1 µM in test [1], in test [2] and in test [3] were 79.1%, 99.6% and 99.1%, respectively.

Take `Cn1cc2ncc(O[C@H]3CCc4c(C(=O)Nc5nn(C)c6ccccc56)cccc43)cc2n1` [Compound 76al]: the figures for the inhibition at 0.01 µM in test [1], in test [2] and in test [3] were 91.2%, 98% and 105%, respectively. The values for the inhibition at 0.1 µM in test [1], in test [2] and in test [3] were 95.9%, 98.5% and 103%, respectively.

Consider `Cn1cc2ncc(O[C@H]3CCc4c(C(=O)Nc5nn(C)c6cccc(F)c56)cccc43)cc2n1` [Compound 76aw], for which the values for the inhibition at 0.01 µM in test [1], in test [2] and in test [3] were 56%, 64% and 65.1%, respectively. In addition, the inhibition at 0.1 µM was 92.4% in test [1], 93.6% in test [2] and 99.1% in test [3].

Consider `Cc1cccc(NC(=O)c2cccc3c2CC[C@@H]3Oc2cnc3cn(C)nc3c2)n1` [Compound 76bd], for which the inhibition at 0.01 µM was 5.6% in test [1], 21.2% in test [2] and 15.3% in test [3]. Besides, the inhibition at 0.1 µM in test [1] was determined as 31.4%; in test [2], 69.7%; in test [3] it was 94.1%.

`CN(c1cnc2cn(C)nc2c1)[C@H]1CCc2c(C(=O)Nc3cncc(Cl)c3)cccc21` [Compound 80k]: the inhibition at 0.01 µM was 22% in test [1], 14.7% in test [2] and 73.7% in test [3]. Further, the inhibition at 0.1 µM in test [1] amounted to 47.8%; in test [2], 83.9%; in test [3] it was 96.5%.

Consider `CN(c1cnc2cn(C)nc2c1)[C@H]1CCc2c(C(=O)Nc3nn(C)c4ccccc34)cccc21` [Compound 80l], for which the inhibition at 0.01 µM in test [1] amounted to 69.9%; in test [2] it was 75.1%; in test [3], 24.3%. Besides, the inhibition at 0.1 µM amounted to 104% in test [1], 97.9% in test [2] and 98.4% in test [3].

With `Cn1ncc2ncc(N[C@H]3CCc4c(Nc5cc(C(C)(C)C)on5)cccc43)nc21` [Compound 86, (S)—N^4-(5-(tert-butyl)isoxazol-3-yl)-N1-(1-methyl-1H-pyrazolo[3,4-b]pyrazin-6-yl)-2,3-dihydro-1H-indene-1,4-diamine], the inhibition at 0.01 µM in test [1] is 23.4%; in test [2] it was 20%; in test [3], 46.6%. Also, the inhibition at 0.1 µM came out at 82% in test [1], 98.4% in test [2] and 95.9% in test [3].
